This is an account of results in ChEMBL document CHEMBL3351500, “Fragment-based identification and optimization of a class of potent pyrrolo[2,1-f][1,2,4]triazine MAP4K4 inhibitors” (Bioorg Med Chem Lett, 2014).

For orientation: clearance means the volume of plasma or blood freed of the substance per unit of time. High values mean efficient removal, low ones inefficient removal. Broadly, the bioavailability is dose-corrected exposure relative to a reference, in per cent. A higher bioavailability goes with much systemic uptake.

Common to all, as to format: ADME, organism-based
A short description of series [1]: Clearance in mouse plasma at 1 mg/kg, iv. Further details: dose 1 mg/kg, route intravenous.
A short description of series [2]: Volume of distribution at steady state in mouse plasma at 1 mg/kg, iv. The conditions noted are these: read-out: Vdss. On the set-up: dose 1 mg/kg, route intravenous.
Series [3] is described as follows: Oral bioavailability in mouse plasma at 25 mg/kg.

Regarding `CN1CCN(c2ccc(-c3cc4c(Nc5ccncc5)ncnn4c3)cn2)CC1`, in series [1], the clearance is 78 mL/min/kg. Besides, the Vd in series [2] was 15 L/kg.

Compound `CC(C)(O)Cn1cc(-c2ccc(-c3cc4c(Nc5ccncc5)ncnn4c3)cc2)cn1` yielded a clearance in series [1] of 22 mL/min/kg. In addition, the Vd in series [2] is 2 L/kg. The bioavailability in series [3] is 16%.

In series [1], `CS(=O)(=O)c1ccc(-c2cc3c(Nc4ccncc4)ncnn3c2)cc1` displayed a clearance of 25 mL/min/kg. Further, the Vd in series [2] was found to be 1 L/kg. For the same compound, the bioavailability in series [3] is 6%.
